Assay results published in US20210181109A1 (FUJIFILM Corporation, priority 2018, published 2021).

How the values were obtained:
[1] = NAC depletion percent, HPLC-UV detection (281 nm)
Experimental: (§1) 1) To a 50 mL vessel, 11.6 mg (±0.1 mg) of NAC is weighed; to this, a 25 mL measuring pipet is used to add 20 mL of 100 mmol/L phosphate buffer (pH: 8.0); and the content is gently stirred using a test tube mixer to achieve dissolution (2 mmol/L). 2) To a 500 mL vessel, 149.5 mL of this buffer is added using a 50 mL measuring pipet; to this, 0.5 mL of the above-described 2 mmol/L NAC solution is added; and the content is mixed by inversion to achieve 300-fold dilution (6.667 μmon).
(§2) The test substance undiluted solution is defined as an “undiluted solution”, and used. Incidentally, this “undiluted solution” may be appropriately diluted to, for example, 1/10, 1/100, or 1/1000, using an appropriate solvent, and the resultant solution may be used.
(§3) Subsequently, the solution having the maximum dissolution concentration is defined as an “undiluted solution”, and tested. Incidentally, this “undiluted solution” may be appropriately diluted to, for example, 1/10, 1/100, or 1/1000, using an appropriate solvent, and the resultant solution may be used.
(§4) The test substance is prepared at 1 mmol/L in any of solvents that are water, acetonitrile, acetone, and a 5 mass % dimethyl sulfoxide (DMSO)/acetonitrile solution and used as a test substance solution. As the solvent, a solvent in which the test substance dissolves at 1 mmol/L is used; when the test substance is soluble in a plurality of solvents, the solvent is selected in the following order of decreasing precedence: water, acetonitrile, acetone, and 5 mass % DMSO/acetonitrile.
(§5) Test substance solutions are prepared on a 96-well plate (U96 PP-0.5 ML NATURAL, Thermo Fisher Scientific Inc. (NUNC)) mainly using a 12-channel pipette, and a reagent is added in accordance with the following formula.
(§6) Nucleophilic reagent (NAC and NAL): 150 μL
(§7) Test substance solution: 50 μL
(§8) The plate is tightly sealed using a plate sealing (Resistant embossed seal, SHIMADZU GLC Ltd.), and stirred using a plate shaker (Titramax 100, Heidolph Instruments GmbH & CO. KG). The plate is subjected to spinning down using a centrifuge, and then to incubation at 25° C., for 24 hours, in a light-shielded state.
(§9) After the incubation for 24 hours, the plate sealing is removed; to each sample, 50 µL of the reaction stopping solution is added to stop the reaction.
(§10) The HPLC measurement conditions for the nucleophilic reagents are as follows.
(§11) From the average values (each, n=3) of peak areas of the post-reaction unreacted NAC or NAL and the blank-test (after performing the reaction step without addition of the test substances) NAC or NAL, the following formula is used to calculate the depletion percent of NAC or NAL.
(§12) NAC depletion percent (% depletion)=[1−(Average value of peak areas of post-reaction unreacted NAC/Average value of peak areas of blank-test (after performing the reaction step without addition of the test substances) NAC)]×100
(§13) The average value of peak areas of the post-reaction unreacted NAC is the average value of areas obtained by measuring three times post-reaction unreacted NAC. The average value of peak areas of blank-test (after performing the reaction step without addition of the test substances) NAC is the average value of areas obtained by measuring three times blank-test (after performing the reaction step without addition of the test substances) NAC.
(§14) The reactions were each performed on a 96-well plate, and the number of samples of each case was set to n=3. In addition, as controls, reaction solutions including the solvent alone were prepared. The reaction solutions were prepared so as to have a NAC or NAL concentration of 5 μmon. To the reaction solutions after the lapse of 24 hours, a trifluoroacetic acid (TFA) aqueous solution was added such that the final concentration became 0.5% (v/v) TFA. Subsequently, HPLC was performed for measurements by two detection methods that were light absorption detection using a photodiode array (PDA) detector, and fluorescence detection using a fluorescence detector.

[2] = NAL depletion percent, HPLC-fluorescence detection
Experimental: as §1, with “12.6” for “11.6”, “NAL” for “NAC”, “10.2);” for “8.0);”, “mixture” for “mixer”, “mmol/L NAL solution).” for “mmol/L).”, “μmol/L).” for “μmon).”
as §2, §3, §4, §5, §6, §7, §8, §9, §10, §11
(§15) NAL depletion percent (% depletion)=[1−(Average value of peak areas of post-reaction unreacted NAL/Average value of peak areas of blank-test (after performing the reaction step without addition of the test substances) NAL)]×100
(§16) The average value of peak areas of post-reaction unreacted NAL is the average value of areas obtained by measuring three times post-reaction unreacted NAL. The average value of peak areas of blank-test (after performing the reaction step without addition of the test substances) NAL is the average value of areas obtained by measuring three times blank-test (after performing the reaction step without addition of the test substances) NAL.
as §14

[3] = NAC depletion percent, HPLC-fluorescence detection
Experimental: as §1, §2, §3, §4, §5, §6, §7, §8, §9, §10, §11, §12, §13, §14

[4] = Average score of NAC and NAL depletion and prediction of skin allergenicity, fluorescence method; conditions: for Average score: single substance, test substance solution 1 mmol/L, fluorescence method
Experimental: (§17) The average value (Average Score) of NAC and NAL depletion percents is calculated. In the resultant value, the second decimal place is rounded off.
(§18) Average value (Average Score) of NAC and NAL depletion percents=(NAC depletion percent+NAL depletion percent)/2
(§19) The depletion percent of at least one of NAC or NAL or the average score of the depletion percents of NAC and NAL is calculated, and whether or not the test substances are “allergenic substances” or “non-allergenic substances” is determined:
(§20) (1) in a case of performing evaluation based on the average value of the depletion percent of NAC and the depletion percent of NAL,
(§21) In the following Tables, S represents as being an allergenic substance and NS represents as being a non-allergenic substance.

[5] = Average score of NAC and NAL depletion and prediction of skin allergenicity, UV method; conditions: for Average score: single substance, test substance solution 1 mmol/L
Experimental: as §17, §18, §19, §20, §21

[6] = NAL depletion percent, HPLC-UV detection (281 nm)
Experimental: as §1, with “12.6” for “11.6”, “NAL” for “NAC”, “10.2);” for “8.0);”, “mixture” for “mixer”, “mmol/L NAL solution).” for “mmol/L).”, “μmol/L).” for “μmon).”
as §2, §3, §4, §5, §6, §7, §8, §9, §10, §11, §15, §16, §14

[7] = single substance, test substance solution 1 mmol/L, Reference (UV method)
[8] = single substance, test substance solution 1 mmol/L, fluorescence method
[9] = Reference (UV method), non-allergenic substance
[10] = Fluorescence method, non-allergenic substance
[11] = Fluorescence method, skin allergenicity prediction
[12] = Reference (UV method), skin allergenicity prediction

SMILES	NAC depletion (%) [1, 7]	NAL depletion (%) [2, 8]	NAC depletion (%) [3, 8]	Prediction result [4]	Average score [4]	Prediction result [5]	Average score ([5]; Reference (UV method))	NAL depletion (%) [6, 7]	NAC depletion (%) [1, 9]	NAL depletion (%) [2, 10]	NAC depletion (%) [3, 10]	Prediction result [4, 11]	Prediction result [5, 12]	NAL depletion (%) [6, 9]	NAC depletion (%) [1]	NAL depletion (%) [2]	NAC depletion (%) [3]	NAL depletion (%) [6]
CC(C)=CCCC(C)=CCCC(C)=CC=O [Farnesal]	17.2%	4.9%	22.4%	S (key: S represents as being an allergenic substance; NS represents as being a non-allergenic substance)	13.6%	S (key: S represents as being an allergenic substance; NS represents as being a non-allergenic substance)	13.0%	8.8%	–	–	–	–	–	–	–	–	–	–
OCC(O)CO [Glycerol]	–	–	–	–	–	–	–	–	0.3%	0.0%	0.2%	NS (NS represents as being a non-allergenic substance)	NS (NS represents as being a non-allergenic substance)	0.7%	–	–	–	–
CCCCCC [Hexane]	–	–	–	–	–	–	–	–	–	–	–	NS (NS represents as being a non-allergenic substance)	NS (NS represents as being a non-allergenic substance)	–	0.2%	0.0%	0.0%	0.9%
CC(C)O [Isopropanol]	–	–	–	–	–	–	–	–	0.1%	4.6%	1.1%	NS (NS represents as being a non-allergenic substance)	NS (NS represents as being a non-allergenic substance)	2.8%	–	–	–	–
CCCCCCCCCCCCCC(=O)OC(C)C [Isopropyl myristate]	–	–	–	–	–	–	–	–	0.0%	5.8%	0.4%	NS (NS represents as being a non-allergenic substance)	NS (NS represents as being a non-allergenic substance)	1.8%	–	–	–	–
CC(O)C(=O)O (stereo not shown) [Lactic acid]	–	–	–	–	–	–	–	–	0.0%	0.0%	1.4%	NS (NS represents as being a non-allergenic substance)	NS (NS represents as being a non-allergenic substance)	2.8%	–	–	–	–
CC(C=O)Cc1ccc(C(C)(C)C)cc1 (stereo not shown) [Lilial]	7.0%	0.2%	18.0%	S (key: S represents as being an allergenic substance; NS represents as being a non-allergenic substance)	9.1%	S (key: S represents as being an allergenic substance; NS represents as being a non-allergenic substance)	5.4%	3.9%	–	–	–	–	–	–	–	–	–	–
COC(=O)c1ccccc1O [Methyl salicylate]	–	–	–	–	–	–	–	–	0.0%	0.0%	0.3%	NS (NS represents as being a non-allergenic substance)	NS (NS represents as being a non-allergenic substance)	0.4%	–	–	–	–
COC(=O)c1ccc(O)cc1 [Methylparaben]	–	–	–	–	–	–	–	–	0.1%	4.7%	0.7%	NS (NS represents as being a non-allergenic substance)	NS (NS represents as being a non-allergenic substance)	1.3%	–	–	–	–
CCCCCCCC(=O)O [Octanoic acid]	–	–	–	–	–	–	–	–	0.0%	0.0%	0.0%	NS (NS represents as being a non-allergenic substance)	NS (NS represents as being a non-allergenic substance)	1.2%	–	–	–	–
O=C(O)C(=O)O [Oxalic acid]	0.0%	0.3%	0.0%	–	0.1%	–	1.8%	3.6%	–	–	–	–	–	–	–	–	–	–
